Data published in patent US20080221095A1, “Metalloprotease inhibitors containing a heterocyclic moiety” (priority 2007, published 2008).

Assays:
Format in all cases: biochemical
[1] = molecular target: T1, catalytic domain of MMP-13 enzyme (Homo sapiens, UniProt P45452); assay: Assay for determining MMP-13 inhibition (fluorescent substrate); details: read-out: MMP-13 Activity (IC50 MMP-13), Group
T1 construct: 50 nM stock solution of catalytic domain of MMP-13 enzyme; purchased Invitek (Berlin) 30100812
Protocol: Assay for Determining MMP-13 Inhibition
The typical assay for MMP-13 activity is carried out in assay buffer comprised of 50 mM Tris, pH 7.5, 150 mM NaCl, 5 mM CaCl2 and 0.05% Brij-35. Different concentrations of tested compounds are prepared in assay buffer in 50 μL aliquots. 10 μL of a 50 nM stock solution of catalytic domain of MMP-13 enzyme (produced by Alantos or commercially available from Invitek (Berlin), Cat.#30100812) is added to the compound solution. The mixture of enzyme and compound in assay buffer is thoroughly mixed and incubated for 10 min at room temperature. Upon the completion of incubation, the assay is started by addition of 40 μL of a 12.5 μM stock solution of MMP-13 fluorescent substrate (Calbiochem, Cat. No. 444235). The time-dependent increase in fluorescence is measured at the 320 nm excitation and 390 nm emission by automatic plate multireader. The IC50 values are calculated from the initial reaction rates.

[2] = molecular target: T2, catalytic domain of MMP-3 enzyme (Homo sapiens, UniProt P08254); assay: Assay for determining MMP-3 inhibition (fluorescent substrate); details: read-out: MMP-3 Activity (IC50 MMP-3), Group
T2 construct: 100 nM stock solution of the catalytic domain of MMP-3 enzyme (Biomol, Cat. No. SE-1 09); purchased Biomol SE-1 09
Protocol: Assay for Determining MMP-3 Inhibition
The typical assay for MMP-3 activity is carried out in assay buffer comprised of 50 mM MES, pH 6.0, 10 mM CaCl2 and 0.05% Brij-35. Different concentrations of tested compounds are prepared in assay buffer in 50 μL aliquots. 10 μL of a 100 nM stock solution of the catalytic domain of MMP-3 enzyme (Biomol, Cat. No. SE-1 09) is added to the compound solution. The mixture of enzyme and compound in assay buffer is thoroughly mixed and incubated for 10 min at room temperature. Upon the completion of incubation, the assay is started by addition of 40 μL of a 12.5 μM stock solution of NFF-3 fluorescent substrate (Calbiochem, Cat. No. 480455). The time-dependent increase in fluorescence is measured at the 330 nm excitation and 390 nm emission by an automatic plate multireader. The IC50 values are calculated from the initial reaction rates.

activated MMP-8 enzyme = molecular target: T3, activated MMP-8 enzyme (Homo sapiens, UniProt P22894); assay: Assay for determining MMP-8 inhibition (fluorescent substrate); details: read-out: MMP-8 Activity (IC50 MMP-8), Group
T3 construct: purchased Calbiochem 444229
Protocol: Assay for Determining MMP-8 Inhibition
The typical assay for MMP-8 activity is carried out in assay buffer comprised of 50 mM Tris, pH 7.5, 150 mM NaCl, 5 mM CaCl2 and 0.05% Brij-35. Different concentrations of tested compounds are prepared in assay buffer in 50 μL aliquots. 10 μL of a 50 nM stock solution of activated MMP-8 enzyme (Calbiochem, Cat. No. 444229) is added to the compound solution. The mixture of enzyme and compound in assay buffer is thoroughly mixed and incubated for 10 min at 37° C. Upon the completion of incubation, the assay is started by addition of 40 μL of a 10 μM stock solution of OmniMMP fluorescent substrate (Biomol, Cat. No. P-126). The time-dependent increase in fluorescence is measured at the 320 nm excitation and 390 nm emission by an automatic plate multireader at 37° C. The IC50 values are calculated from the initial reaction rates.

T3 sequence (P22894 101-467): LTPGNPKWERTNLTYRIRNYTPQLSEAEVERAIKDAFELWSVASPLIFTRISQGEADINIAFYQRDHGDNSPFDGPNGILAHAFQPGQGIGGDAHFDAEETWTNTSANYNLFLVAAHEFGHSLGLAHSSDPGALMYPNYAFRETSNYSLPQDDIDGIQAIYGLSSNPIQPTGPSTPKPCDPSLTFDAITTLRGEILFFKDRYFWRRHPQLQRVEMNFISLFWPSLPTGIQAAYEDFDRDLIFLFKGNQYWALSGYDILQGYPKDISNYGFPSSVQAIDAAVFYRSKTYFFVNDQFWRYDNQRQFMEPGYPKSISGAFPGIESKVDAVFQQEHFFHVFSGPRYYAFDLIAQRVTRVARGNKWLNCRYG
T2 sequence (P08254 100-272 limits assumed): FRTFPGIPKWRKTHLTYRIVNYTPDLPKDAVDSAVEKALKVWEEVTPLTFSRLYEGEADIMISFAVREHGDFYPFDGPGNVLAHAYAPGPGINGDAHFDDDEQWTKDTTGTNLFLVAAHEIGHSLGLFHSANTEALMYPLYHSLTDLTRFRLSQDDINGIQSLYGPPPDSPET

Structure (SMILES) | IC50 [1] [nM] | IC50 [2] [nM] | IC50 (activated MMP-8 enzyme) [nM]
O=C1COc2ccc(CNC(=O)c3nc(-c4ccccc4)cc(=O)[nH]3)cc2N1 [1/1] | 100 to 20000 |  | 
Cc1nc(C(=O)NCc2ccc3c(c2)NC(=O)CO3)[nH]c(=O)c1C [1/2] | < 100 |  | 
O=C1COc2ccc(CNC(=O)c3nc4ccccc4c(=O)[nH]3)cc2N1 [1/4] | < 100 | < 250 | < 250
CC(NC(=O)c1nc2ccccc2c(=O)[nH]1)c1ccc2c(c1)NC(=O)CO2 (stereo not drawn) [1/5] | 100 to 20000 |  | 
CC1Oc2ccc(CNC(=O)c3nc4ccccc4c(=O)[nH]3)cc2NC1=O (stereo not drawn) [1/6] | < 100 |  | 250 to 20000
Cn1c(=O)oc2ccc(CNC(=O)c3nc4ccccc4c(=O)[nH]3)cc21 [1/7] | < 100 |  | 250 to 20000
CN1C(=O)COc2ccc(CNC(=O)c3nc4ccccc4c(=O)[nH]3)cc21 [1/8] | 100 to 20000 |  | 250 to 20000
Cc1csc2nc(C(=O)NCc3ccc4c(c3)NC(=O)CO4)[nH]c(=O)c12 [1/9] | < 100 | < 250 | < 250
O=C1COc2c(F)cc(CNC(=O)c3nc4ccccc4c(=O)[nH]3)cc2N1 [1/10] | < 100 |  | 
O=C1COc2c(F)cc(CNC(=O)c3nc4ccc(F)cc4c(=O)[nH]3)cc2N1 [1/11] | < 100 |  | 
Cc1sc2nc(C(=O)NCc3cc(F)c4c(c3)NC(=O)CO4)[nH]c(=O)c2c1C [1/12] | < 100 |  | < 250
O=C1COc2ncc(CNC(=O)c3nc4ccccc4c(=O)[nH]3)cc2N1 [1/13] | 100 to 20000 |  | 
Cc1sc2nc(C(=O)NCc3cnc4c(c3)NC(=O)CO4)[nH]c(=O)c2c1C [1/15] | < 100 |  | 250 to 20000
O=C(NCc1ccc2c(c1)NC(=S)CO2)c1nc2ccccc2c(=O)[nH]1 [1/16] | < 100 |  | 250 to 20000
Cc1sc2nc(C(=O)NCc3ccc4c(c3)NC(=S)CO4)[nH]c(=O)c2c1C [1/17] | < 100 |  | < 250
O=C(NCc1ccc2c(c1)-n1cnnc1CO2)c1nc2ccccc2c(=O)[nH]1 [1/18] | < 100 |  | 
Cc1sc2nc(C(=O)NCc3ccc4c(c3)-n3cnnc3CO4)[nH]c(=O)c2c1C [1/19] | < 100 |  | 
O=C1COc2ccc(CNC(=O)c3nc4ccc(F)cc4c(=O)[nH]3)c(F)c2N1 [1/23] | 100 to 20000 |  | 
Cc1sc2nc(C(=O)NCc3ccc4c(c3F)NC(=O)CO4)[nH]c(=O)c2c1C [1/24] | 100 to 20000 |  | 
O=C1COc2cc(F)c(CNC(=O)c3nc4ccccc4c(=O)[nH]3)cc2N1 [1/25] | < 100 |  | 
Cc1sc2nc(C(=O)NCc3cc4c(cc3F)OCC(=O)N4)[nH]c(=O)c2c1C [1/26] | < 100 |  | 250 to 20000
O=C1COc2c(F)c(F)cc(CNC(=O)c3nc4ccccc4c(=O)[nH]3)c2N1 [1/27] | 100 to 20000 |  | 
CC1N=C(C(=O)NCc2ccc3c(c2)NC(=O)CO3)NC(=O)C1c1ccccc1 (stereo not drawn) [1/29] | < 100 | 250 to 20000 | 
O=C(NCc1ccc2c(c1)-n1c(noc1=O)CO2)c1nc2ccccc2c(=O)[nH]1 [1/30] | 100 to 20000 |  | 
O=C1COc2ccc(CNC(=O)c3nc4sc5c(c4c(=O)[nH]3)CCC3(C5)OCCO3)cc2N1 [1/32] | < 100 | < 250 | < 250
O=C1COc2ccc(CNC(=O)c3ncc(-c4ccc(F)cc4)c(=O)[nH]3)cc2N1 [1/33] | < 100 |  | 
Cc1ccc2nc(NC(=O)Cc3ccc4c(c3)NC(=O)CO4)[nH]c(=O)c2c1 [1/34] | 100 to 20000 |  | 
O=C1COc2ccc(CNC(=O)c3nc4sc5c(c4c(=O)[nH]3)CCC3(CCN(C(=O)OCc4ccccc4)CC3)C5)cc2N1 [Example 1] | 100 to 20000 |  | 
O=C1COc2ccc(CNC(=O)c3nc4c(c(=O)[nH]3)C3CCC4CC3)cc2N1 [Example 3] | < 100 |  | < 250
